Tests used:
[1] = system: synovium-derived synthetic tissue; assay: Influence of actin regulatory agents on contraction of a synthetic tissue; format: cell-based; details: dihydrocytochalasin B 3 μM, Y27632 10 μM; after detachment
Experimental: Dihydrocytochalasin B and Y27632 (Yamanouchi Pharmaceutical), which are known to have an actin depolymerizing function, were used to study their influence on the contraction of a synthetic tissue.
A synovium-derived synthetic tissue was produced by monolayer culture. The tissue was detached from a culture dish. The tissue was cultured in medium in the presence of dihydrocytochalasin B (3 μM) and Y27632 (10 μM). The transition of the radius of the tissue is shown every unit culture time in FIG. 40. […] Dihydrocytochalasin B and Y27632 are representative exemplary actin polymerization inhibitors. It will be understood by those skilled in the art that other actin polymerization inhibitors, such as cytochalasin D and the like, have a similar function.

synovial cells = assay: HE staining of synthetic tissue produced from synovial cells; format: cell-based, pig
Experimental: Synovial cells were collected from a knee joint of a pig (LWD ternary hybrid, 2-3 months old upon removal of cells), followed by treatment with collagenase. The cells were cultured and subcultured in 10% FBS-DMEM medium (FBS was obtained from HyClone, DMEM was obtained from GIBCO). It has been reported that 10th passage synovial cells still have pluripotency. Although cells of 10 or less passages were used in this example, cells of more than 10 passages may be used depending on the application. Autotransplantation was performed for humans, where a sufficient number of cells were used and the cells were cultured for a short period of time so as to reduce the risk of infection or the like. Synovial cells (4.0×10^6) were cultured in 2 ml of 10% FBS-DMEM medium in a 35-mm dish, a 60-mm dish, or 100-mm dish (BD Biosciences, culture dish and multiwell cell culture plate). In this case, ascorbic acid was added. The dishes, the ascorbic acid concentrations, and the cell concentration are described below. Ascorbic acid 2-phosphate: 0 mM, 0.1 mM, 0.5 mM; 1 mM, 2 mM, and 5 mM Medium was exchanged two times per week until the end of a predetermined culture period. At the end of the culture period, a cell sheet was detached from the dish by pipetting circumferentially around the dish using a 100-μl pipetteman. After detachment, the cell sheet was made as flat as possible by lightly shaking the dish. […]

[2] = system: synovial membrane-derived synthetic tissue; assay: Collagen content measurement (hydroxyproline) of synovial membrane-derived synthetic tissue; format: cell-based, pig
Experimental: In order to determine the collagen concentration, the collagen content was measured. […] The amount of produced collagen is substantially proportional to the time period of culture (FIG. 8). Next, it was determined whether or not collagen (extracellular matrix) is sufficiently secreted after implantation of a synthetic tissue of the present invention. The following protocol was used. Culture periods: 3 days, 7 days, 14 days, and 21 days, Concentrations of ascorbic acid 2-phosphate: 0 mM, 0.1 mM, 1 mM, and 5 mM Under the above-described conditions, a synovial membrane-derived synthetic tissue was produced. 6 N HCl was added to culture medium for the synthetic tissue, followed by hydrolysis at 105° C. for 18 hours. The medium was oxidized with chloramine T. Thereafter, the synthetic tissue was subjected to color development using Ehrlich's Reagent Solution (2 g of p-dimethylamino-benzaldehyde+3 ml of 60% perchloric acid; isopropanol was diluted at 3:13), followed by measurement of absorbance.

monolayer culture cells = assay: Conditions for detachment during production of a synthetic tissue; format: cell-based
Experimental: In this example, it was determined whether or not chemical detachment can be used instead of physical detachment (mechanical detachment (e.g., pipetting, etc.)) during the production of the synthetic tissue of the present invention.
Cell density: 4×10^4 cells/cm^2
Conditions: CO2 5%, air 95%, 37° C.
Medium: DMEM/F12 (FBS 10%) supplemented with 10 ng/ml TGFβ1.
This medium was used to conduct culture under the conditions described in Examples 14 and 15 to produce a synthetic tissue.
Medium: DMEM (GIBCO), FBS (HyClone) 10%, ITS+Premix (insulin, transferrin, selenious acid) (BD Biosciences) 6.25 μg/ml, dexamethasone (Sigma) 10^−7 M, ascorbic acid (WAKO) 50 μg/ml, pyrubic acid (SIGMA) 100 μg/ml.

Q: With `C[C@@H](N)[C@H]1CC[C@H](C(=O)Nc2ccncc2)CC1` [Y27632] as the compound, how does the “contraction of the synthetic tissue (radius over culture time)” value [1] read?
A: inhibited

Q: Which “formation of an extracellular matrix” value (synovial cells; 0.1 mM or more) does the source give for `O=C1O[C@H]([C@@H](O)CO)C(O)=C1OP(=O)(O)O` [ascorbic acid 2-phosphate] here?
A: promoted

Q: And the “Eosin staining of the synthetic tissue” value (synovial cells; concentration of more than 0.1 mM)?
A: more intense

Q: What about the “quantities of collagen produced, dependence on concentration” value ([2]; 0, 0.1, 1 and 5 mM, culture 3 to 21 days) of the same compound?
A: 0 mM<<5 mM<1 mM≦0.1 mM

Q: What about the “production of collagen (amount of hydroxyproline)” value ([2]; 0.1 mM or more added) of the same compound?
A: significantly promoted

Q: What about the “collagene content in the synthetic tissue” value ([2]; 0.1 mM or more added, any of the culture periods) of the same compound?
A: significantly increased

Q: `C=C1[C@@H](C)[C@H]2[C@H](Cc3ccccc3)NC(=O)[C@]23OC(=O)CC[C@H](O)CCC[C@@H](C)C/C=C/[C@H]3[C@@H]1O` [dihydrocytochalasin B, Dihydrocytochalasin B] was tested. Which “contraction of the synthetic tissue (radius over culture time)” value [1] did it give?
A: inhibited

Q: What does the source list for “TGF-β: transforming growth factor, 10 ng/ml TGFβ1 in medium”?
A: detachment of monolayer culture cells from the culture dish (monolayer culture cells; 10 ng/ml TGFβ1 in DMEM/F12 (FBS 10%)): more easily detached; effect on culture cells (monolayer culture cells; added in monolayer culture, no physical stimulus): has the effect of detaching culture cells
